How the values were obtained:
Assay type in all cases: biochemical, Epilobium ciliatum
[1] = tested on: T1, acetolactate synthase (ALS), S biotype; assay: ALS activity, colorimetric acetoin at […] nm, de-salted leaf extract; details: read-out: I50
T1 construct: native enzyme in de-salted crude extract of young leaves

[2] = target: T2, glutamine synthetase (GS), S biotype; assay: GS activity, crude leaf protein extract; details: read-out: I50
T2 construct: gene GS1; native isoenzymes in crude leaf protein extract (rosette stage); isoforms not resolved

[3] = target: T3, glutamine synthetase (GS), R2 biotype; assay: GS activity, crude leaf protein extract; details: stated gain, read-out: I50
T3 construct: gene GS1; native isoenzymes in crude leaf protein extract (rosette stage)

[4] = target: T4, glutamine synthetase (GS), R1 biotype; assay: GS activity, crude leaf protein extract; details: read-out: I50
T4 construct: gene GS1; native isoenzymes in crude leaf protein extract (rosette stage); isoforms not resolved; described as glufosinate-sensitive

Compound | IC50 [1] [µM] | IC50 [2] [µM] | IC50 [3] [µM] | IC50 [4] [µM]
COc1cc(OC)nc(NC(=O)NS(=O)(=O)c2ncccc2C(F)(F)F)n1 [flazasulfuron] | 30.9 |  |  | 
CP(=O)(O)CCC(N)C(=O)O (stereo not shown) [glufosinate] |  | 18.5 | 1250 | 25.8
